According to the METLIN SMRT retention time set (Domingo-Almenara et al. 2019):

Test: gradient 5% acetonitrile 3 min, to 50% in 2 min, to 85% in 15 min, held 3 min, 100 µL/min
Conditions: column: Zorbax Extend-C18 2.1 x 50 mm; eluents: water / acetonitrile, 0.1% formic acid
Outline: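 Pure standards were run in mixtures of ~100 molecules by HPLC coupled to a quadrupole time-of-flight mass spectrometer. The column was a Zorbax Extend-C18 (2.1 × 50 mm, 1.8 μm) at 100 μL/min, with water and acetonitrile each containing 0.1% formic acid, in positive and negative ionization mode. Dead and dwell volumes were 40 μL and 900 μL. Retention time was taken from computationally picked adduct peaks, each manually inspected, with data collected over 3 months.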

Row | RP-LC retention time | Structure (SMILES)
1 | 685 s | CSc1cccc(NC(=O)CN2CCC3(CC2)N=C(c2cccc(F)c2)C(=O)N3)c1
2 | 684 s | CCCNc1cc(N2CCC(CCC(=O)NCc3cc(F)ccc3F)CC2)ncn1
3 | 790 s | CSc1ccc(-c2nc3cc(C)ccn3c2Nc2ccccc2C)cc1
4 | 650 s | COc1ccc(-c2nnc(COc3ccc(NC(=O)CSc4ccncc4)cc3)o2)cc1
5 | 1020 s | CCn1cc(-c2nc(CC(=O)Nc3cc(F)ccc3F)cs2)c2cccnc21
6 | 1020 s | CC(C)c1noc(-c2ccnc(-n3cnc(C(=O)NC4CCCCC4)c3)c2)n1
7 | 1050 s | CC1Oc2ccccc2OC1C(=O)Nc1cccc(C(F)(F)F)c1 (stereo not given)
8 | 679 s | O=C(NCc1ccc2c(c1)OCO2)c1ccc2ccnc(N3CCN(C(=O)c4ccco4)CC3)c2c1
9 | 736 s | O=C(NCc1ccccc1Br)c1cn2ccccc2n1
10 | 933 s | CCCC(Nc1nc(C(=O)OCC)nc2ccccc12)c1cccs1 (stereo not given)
11 | 982 s | COCCNS(=O)(=O)c1cc(-c2cc(C(F)(F)F)on2)sc1C
12 | 810 s | O=C(Nc1cnc(N2CCOCC2)nc1)c1ccc(Br)cc1
13 | 1070 s | CCc1ccc(/C=C2/SC(=S)NC2=O)cc1
14 | 658 s | Cc1nnc(N2CCC(C(=O)N3CCCC3)CC2)c2nn(-c3ccccc3)c(C)c12
15 | 662 s | CCNc1cc(N2CCCC(CCC(=O)NCCC(C)C)C2)ncn1 (stereo not given)
16 | 651 s | O=C(Nc1ccc2c(c1)OCO2)Nc1ccc2nc3n(c(=O)c2c1)CCCC3
17 | 854 s | CCc1ccc(CNC(=O)c2cccc(C3CCCN(C(=O)NC)C3)c2)cc1 (stereo not given)
18 | 586 s | COCCC1CCN(C(=O)CN(C)C(=O)c2ccnn2C)CC1
19 | 842 s | Cc1cccc(NC(=O)Cn2nc(C(=O)N3CCCC3)c3ccccc32)c1
20 | 937 s | C=CCn1c(=O)c2ccccc2n(Cc2nc(-c3ccc(OC)c(OC)c3)no2)c1=O
21 | 664 s | CC1CN2C=NC(N3CCN(C(=O)Nc4cc(F)cc(F)c4)CC3)=CC2=N1 (stereo not given)
22 | 602 s | CNC(=O)[C@@H]1CN(C(=O)NCc2ccco2)C[C@H]1c1nc(C)no1

Row | RP-LC retention time | Structure (SMILES)
23 | 606 s | Cc1ccc(CN(C)Cc2cc(=O)n3ccccc3n2)cc1
24 | 606 s | O=C(NC1CCCN(c2cc(N3CCCC3)ncn2)C1)c1ccccn1 (stereo not given)
25 | 738 s | Clc1ccc(-c2ccc(CNCC3CCCO3)o2)c(Cl)c1 (stereo not given)
26 | 575 s | COC(=O)c1c(C)[nH]c(C(=O)N2CCC(CC(=O)NCCCN3CCOCC3)CC2)c1C
27 | 1000 s | COc1ccc(CC(=O)N2CCc3cc(-c4ccno4)ccc32)cc1Cl
28 | 715 s | Cc1cccc(N2CCN(c3cc(C(=O)O)c4cc(NS(C)(=O)=O)ccc4n3)CC2)c1C
29 | 721 s | CCN(CC)C(=O)Cn1ccn2nc(-c3ccccc3)c(CO)c2c1=O
30 | 669 s | CCOC(=O)N1CCN(S(=O)(=O)CCNC(=O)c2ccccc2)CC1
31 | 588 s | O=C(CSc1nnc2ccc(-c3cccnc3)nn12)NCc1cccs1
32 | 1100 s | Cc1ccc(SCC(=O)Nc2nc(-c3ccccc3)cs2)cc1
33 | 625 s | O=C(CN1CCN(CC(=O)c2cccs2)CC1)Nc1cc(C(F)(F)F)ccc1Cl
34 | 660 s | O=C(CCCCCCC(=O)Nc1ccccc1)NO
35 | 1180 s | COc1cccc(CNC(=O)Nc2ccc(-c3nc(-c4cc(C)ccc4C)co3)cc2)c1
36 | 1000 s | COc1ccc(C2(C(=O)Nc3cc(-c4ccco4)no3)CC2)cc1
37 | 969 s | CC(C)Cn1cc(S(=O)(=O)N2CCSCC2)c2cccnc21
38 | 609 s | COCCn1ccc2nc(C)c(C(=O)N3CCN(c4ncccn4)CC3)cc2c1=O
39 | 966 s | COc1cccc(NC(=O)C2CCN(S(C)(=O)=O)c3cc(Cl)ccc3O2)c1 (stereo not given)
40 | 1190 s | O=C(COc1ccc(F)cc1)N1CC(Oc2cccc(-c3nc(-c4ccccc4)no3)c2)C1
41 | 580 s | CCCn1cnnc1C1CCCCN1S(=O)(=O)c1cccnc1 (stereo not given)
42 | 918 s | COc1ccc(-n2c(=O)n(C)c(=O)c3cc(C(=O)Nc4ccc(C)cc4)cnc32)cc1
43 | 684 s | COc1cc(-c2oc3cc(O)cc(O)c3c(=O)c2O[C@@H]2O[C@H](CO)[C@@H](O)[C@H](O)[C@H]2O)ccc1O
44 | 813 s | Cc1c(Cl)cccc1Nc1c(-c2cccc(O)c2)nc2cnccn12

Row | RP-LC retention time | Structure (SMILES)
45 | 985 s | CCOC(=O)CC(=O)CSc1ncnc2c1cnn2-c1ccc(F)cc1
46 | 648 s | CC(=O)N1CCc2ccccc2C1C(=O)NCc1cc(F)ccc1F (stereo not given)
47 | 951 s | Cc1ccc(NC(=O)c2cccc([N+](=O)[O-])c2O)c(C)c1
48 | 991 s | O=C(Nc1cc(-c2cccc(F)c2)no1)C1CCCN(c2ncnc3c2nc2n3CCCCC2)C1 (stereo not given)
49 | 776 s | CC(=O)OCC(=O)[C@@]1(O)CCC2C3CCC4=CC(=O)CC[C@]4(C)C3=CC[C@@]21C (stereo not given in full)
50 | 1110 s | Cc1csc(-c2cc(S(=O)(=O)NCC(C)c3ccccc3)c(C)s2)n1 (stereo not given)
51 | 957 s | CCc1nc2c(NC(=O)Nc3ccc4c(c3)CCC4)cccn2n1
52 | 661 s | CC(=O)NCC(O)c1ccc([N+](=O)[O-])cc1 (stereo not given)
53 | 933 s | COc1ccc(NC(=O)CSc2cc(NCc3ccccc3Cl)ncn2)c(OC)c1
54 | 636 s | c1ccc(-c2nc(CSc3ccc(-n4ccnc4)nn3)cs2)cc1
55 | 626 s | CN1C(=O)c2cc(C(=O)N3CCCC3)nn2CC1(C)C(=O)NCc1ccc(F)cc1 (stereo not given)
56 | 821 s | Cc1ccc(C(=O)NC2CCN(c3cc(-c4ccc(Cl)cc4)[nH]n3)C2)cc1 (stereo not given)
57 | 973 s | COc1ccc(Cl)cc1N1CC(c2nc(-c3ccccc3)no2)CC1=O (stereo not given)
58 | 712 s | O=C(Nc1ccccc1F)N1CCC(n2cnc3ccccc3c2=O)CC1
59 | 657 s | CCn1c(CN(C)C(=O)Nc2ccc(Br)cc2)nc2cc(C(=O)N(C)C)ccc21
60 | 826 s | Cc1ccc(CS(=O)(=O)N2CCC(c3cc(N)on3)CC2)cc1C
61 | 846 s | CCc1nc(OCC(=O)Nc2ccccc2C(F)(F)F)c2ccccc2n1
62 | 578 s | CCn1c(C)cc(=O)c2cc(C(=O)Nc3nc(C)c(C)s3)ccc21
63 | 561 s | COc1cc(CN2CCC3(CC2)CC(C)(O)CCO3)cc(OC)c1 (stereo not given)
64 | 761 s | Cc1ccccc1NC(=O)NCCCn1c(C(F)(F)F)nc2cccnc21
65 | 997 s | Cc1csc(-n2nc(C)c(CC(=O)Nc3ccc(Cl)cc3)c2C)n1
66 | 1090 s | COc1cc(OC)cc(N2C(=O)C3N=NN(Cc4nc(-c5ccc(OC(C)C)cc5)no4)C3C2=O)c1 (stereo not given)

Row | RP-LC retention time | Structure (SMILES)
67 | 830 s | Cc1ccc(C)c(NC(=O)N2C[C@H](c3nc(-c4ccncc4)no3)[C@@H](C)C2)c1
68 | 941 s | CN(C)S(=O)(=O)c1cccc(-c2nnc(-c3ccccc3Cl)o2)c1
69 | 855 s | Cc1ccc(NC(=O)C2CCCN(c3ncnc4c3nc3n4CCCCC3)C2)c(Cl)c1 (stereo not given)
70 | 705 s | CCn1nc(C)c(CCN(C)C(=O)Nc2ccccc2Br)c1C
71 | 1400 s | Clc1ccccc1CSc1nnc(-c2ccc(Br)cc2)o1
72 | 792 s | CCCn1c(=O)sc2cc(S(=O)(=O)N3CCN(C(=O)c4ccnn4C)CC3)ccc21
73 | 1080 s | CCCCS(=O)(=O)N1CCC(F)(c2nc(-c3ccccc3)no2)CC1
74 | 923 s | CCOc1ccccc1-c1noc(-c2nn(-c3ccc(C)cc3)ccc2=O)n1
75 | 787 s | O=S(=O)(c1ccc(F)cc1)N1CCC(Cc2nncn2-c2ccccc2)CC1
76 | 620 s | CS(=O)(=O)Nc1ccc(C2(C(=O)NCc3ccccn3)CCCCC2)cc1
77 | 645 s | CCCc1cc(N2CCN(C(=O)COc3ccc(F)cc3)CC2)nc2nnc(C)n12
78 | 916 s | CCOc1ccc(-n2ccn3cc(-c4ccc(F)cc4F)nc3c2=O)cc1
79 | 1100 s | CC1=NS(=O)(=O)N(C)C=C1C(=O)OCc1nc(-c2ccc(OC(F)(F)F)cc2)no1
80 | 1010 s | Cc1[nH]c(-c2ccc(Cl)cc2)cc1C(=O)N1CCC(C)CC1
81 | 601 s | CCc1ccc(Nc2c(C(=O)N3CCOCC3)cnc3nc(C)ccc23)cc1
82 | 1090 s | CC(C)Oc1ccc(-c2noc(Cn3c(=O)n(-c4cccc(F)c4)c(=O)c4sccc43)n2)cc1
83 | 1330 s | Cc1ccc(-c2cc3c(=O)n(Cc4nc(-c5ccc(F)cc5)no4)ccn3n2)cc1
84 | 740 s | Cc1cc(NC(=O)NCCn2nnc3cc(C(=O)N4CCCC4)ccc32)ccc1Br
85 | 705 s | CN(CC#N)C(=O)Cn1c(=O)c2cccn2c2ccccc21
86 | 592 s | Cn1nnnc1SCC(=O)NCCn1nc(-c2ccco2)ccc1=O
87 | 787 s | COCCOC(=O)C1=C(C)NC2=C(C(=O)CC(C)(C)C2)C1c1cccc(OC)c1OC (stereo not given)
88 | 643 s | CC(NC(=O)c1ccc(OC(F)(F)F)cc1)C(=O)N1CCN(c2ccccn2)CC1 (stereo not given)

Row | Structure (SMILES) | RP-LC retention time
89 | CN(C)[C@@H]1CN(C(=O)COc2ccccc2)C[C@H]1CO | 546 s
90 | O=C(NCC1CCCO1)c1cc2cccnc2n(Cc2ccccc2F)c1=O (stereo not given) | 932 s
